The values that follow come from ChEMBL document CHEMBL1156472, “Structural variation governs substrate specificity for organic anion transporter (OAT) homologs. Potential remote sensing by OAT family members” (J Biol Chem, 2007).

One data set concerns the target T1, Solute carrier family 22 member 20 (Mus musculus, UniProt Q80UJ1).
T1 sequence (Q80UJ1 whole entry): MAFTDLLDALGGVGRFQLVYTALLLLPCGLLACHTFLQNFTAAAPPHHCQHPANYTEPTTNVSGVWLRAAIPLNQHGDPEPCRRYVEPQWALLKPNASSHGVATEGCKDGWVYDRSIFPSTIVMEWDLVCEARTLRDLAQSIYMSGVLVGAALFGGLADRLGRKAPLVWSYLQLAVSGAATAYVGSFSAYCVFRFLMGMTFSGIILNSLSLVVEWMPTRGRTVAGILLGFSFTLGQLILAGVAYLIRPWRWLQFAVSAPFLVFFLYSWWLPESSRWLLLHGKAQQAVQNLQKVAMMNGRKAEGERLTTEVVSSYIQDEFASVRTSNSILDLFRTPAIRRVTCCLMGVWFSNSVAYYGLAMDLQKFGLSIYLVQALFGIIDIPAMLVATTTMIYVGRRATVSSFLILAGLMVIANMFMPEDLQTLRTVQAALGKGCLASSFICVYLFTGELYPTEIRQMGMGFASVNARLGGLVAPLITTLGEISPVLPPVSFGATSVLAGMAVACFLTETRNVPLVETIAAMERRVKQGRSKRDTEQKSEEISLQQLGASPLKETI
In words: Inhibition of mouse Oat6-mediated [3H]ES uptake in Xenopus oocytes after 1 hr. As to conditions: read-out: Ki. Type of data set: cell-based, Oocyte.
For `CC(C)C(O)C(=O)O` (stereo not drawn), the Ki was 315 µM. Still for that read-out and setting: in the case of `O=C(O)C(O)Cc1ccc(O)cc1` (stereo not drawn) it was 182 µM. As to `CC(=O)NC(CC(=O)O)C(=O)O` (stereo not drawn), the Ki was determined as 27800 µM. As to `O=C(O)c1ccccc1-c1c2cc(Br)c(=O)c(Br)c-2oc2c(Br)c(O)c(Br)cc12`, the Ki amounted to 4.4 µM. With `CN(Cc1cnc2nc(N)nc(N)c2n1)c1ccc(C(=O)NC(CCC(=O)O)C(=O)O)cc1` (single isomer, unassigned) [METHOTREXATE], the Ki came to 597 µM. On to `CC1(C)S[C@@H]2[C@H](NC(=O)Cc3ccccc3)C(=O)N2[C@H]1C(=O)O` (single isomer, unassigned) [PENICILLIN G SODIUM], for which the Ki came to 452 µM. In the case of `CCCCC(CC)C(=O)O` (stereo not drawn) [2-ETHYLHEXANOIC ACID], the Ki was 6.6 µM.

In the case of `CC(O)CC(=O)O` (stereo not drawn) [3-HYDROXYBUTYRIC ACID, (+/-)-], the Ki turned out to be 191 µM. On to `CC(C)CC(=O)O` [3-METHYLBUTANOIC ACID], for which the Ki worked out at 32.3 µM. As for `C[C@@H]1Cc2c(Cl)cc(C(=O)N[C@@H](Cc3ccccc3)C(=O)O)c(O)c2C(=O)O1` [3R14S-OCHRATOXIN A], the Ki was 49 µM. Consider `O=C(O)C(=O)Cc1ccc(O)cc1` [4-HYDROXYPHENYLPYRUVIC ACID], for which the Ki was determined as 66 µM. Take `O=C(O)CCCCC(=O)O` [ADIPIC ACID]: the Ki amounted to 1580 µM.

On to `Nc1ccc(C(=O)NCC(=O)O)cc1` [AMINOHIPPURIC ACID], for which the Ki was determined as 446 µM.

As to `CC(=O)Oc1ccccc1C(=O)O` [ASPIRIN], the Ki was determined as 101 µM.

In the case of `O=C(O)c1ccccc1` [BENZOIC ACID], the Ki came out at 13.8 µM. Take `CCCC(=O)O` [BUTYRIC ACID]: the Ki turned out to be 82 µM.

Regarding `CC1(C)S[C@@H]2[C@H](NC(=O)C(C(=O)O)c3ccccc3)C(=O)N2[C@H]1C(=O)O` (stereo partly drawn) [CARBENICILLIN DISODIUM], the Ki came out at 1330 µM. For the compound `CCCCC[C@H](O)/C=C/[C@H]1[C@H](O)CC(=O)[C@@H]1C/C=C\CCCC(=O)O` [DINOPROSTONE], the Ki is 18 µM. For the compound `C[C@]12CC[C@@H]3c4ccc(OS(=O)(=O)O)cc4CC[C@H]3[C@@H]1CC[C@@H]2OS(=O)(=O)O` [ESTRADIOL DISULFATE], the Ki worked out at 7210 µM. With `C[C@]12CC[C@@H]3c4ccc(OS(=O)(=O)O)cc4CC[C@H]3[C@@H]1CCC2=O` [ESTRONE SULFURIC ACID], the Ki turned out to be 58 µM. Same read-out and setting: the figure for `O=C1OC2(c3ccc(O)cc3Oc3cc(O)ccc32)c2ccccc21` [FLUORESCEIN] is 99 µM. As to `O=C(O)/C=C/C(=O)O` [FUMARIC ACID], the Ki was above 30000 µM.

Turning to `O=C(O)CCCC(=O)O` [GLUTARATE], the Ki came out at 5410 µM.

On to `CCCCCCC(=O)O` [HEPTANOATE], for which the Ki is 8.2 µM. For `CCCCCC(=O)O` [HEXANOATE], the Ki was determined as 9 µM. As for `O=C(O)CNC(=O)c1ccccc1` [HIPPURIC ACID], the Ki stood at 312 µM. Same read-out and setting: the figure for `CC(C)Cc1ccc(C(C)C(=O)O)cc1` (stereo not drawn) [IBUPROFEN] is 1.1 µM; for `O=C(O)CCCCCCC(=O)O` [OCTANEDIOATE] it is 1130 µM. Consider `O=C(O)C(=O)Cc1ccccc1` [PHENYLPYRUVATE], for which the Ki was 29 µM. Regarding `CCCN(CCC)S(=O)(=O)c1ccc(C(=O)O)cc1` [PROBENECID], the Ki came out at 8.4 µM. Regarding `CCC(=O)O` [PROPIONIC ACID], the Ki is 279 µM. As for `CC(=O)C(=O)O` [PYRUVATE], the Ki was determined as 271 µM. On to `O=C(O)c1ccccc1O` [SALICYLIC ACID], for which the Ki was found to be 44 µM.

For the compound `CC1(C)S[C@@H]2[C@H](NC(=O)[C@H](C(=O)O)c3ccsc3)C(=O)N2[C@H]1C(=O)O` [TICARCILLIN], the Ki came to 533 µM.

Staying with this data set, now noted: read-out: pKi (converted).
For `CC(C)[C@H](O)C(=O)O`, the Ki is 316 µM. The same measure, in the same setting: in the case of `CCCC[C@H](CC)C(=O)O` it was 6.61 µM; in that of `CCCC[C@@H](CC)C(=O)O`, 6.61 µM; in that of `O=C(O)[C@@H](O)Cc1ccc(O)cc1`, 182 µM. Take `CC(=O)N[C@@H](CC(=O)O)C(=O)O`: the Ki was 27500 µM. Still for that read-out and setting: in the case of `C[C@H](O)CC(=O)O` it was 191 µM; in that of `C[C@@H](O)CC(=O)O` [(R)-3-HYDROXYBUTANOATE], 191 µM. On to `CC(C)[C@@H](O)C(=O)O` [DEAMINOHYDROXYVALINE], for which the Ki was 316 µM. As to `O=C(O)/C=C/C(=O)O` [FUMARIC ACID], the Ki was above 31600 µM.

The next data set addresses T1, Solute carrier family 22 member 20. In words: Activity of mouse Oat6 expressed in Xenopus oocytes assessed as drug uptake. It counts as cell-based. As to conditions: oocyte.
By Vmax is commonly meant the rate approached at saturating substrate. As to `C[C@@H]1Cc2c(Cl)cc(C(=O)N[C@@H](Cc3ccccc3)C(=O)O)c(O)c2C(=O)O1` [3R14S-OCHRATOXIN A], the Vmax was found to be 4.8 pmol/h.

As to `Nc1ccc(C(=O)NCC(=O)O)cc1` [AMINOHIPPURIC ACID], the Vmax was found to be 4.6 pmol/h. On to `CCCCC[C@H](O)/C=C/[C@H]1[C@H](O)CC(=O)[C@@H]1C/C=C\CCCC(=O)O` [DINOPROSTONE], for which the Vmax turned out to be 0.9 pmol/h. As to `C[C@]12CC[C@@H]3c4ccc(OS(=O)(=O)O)cc4CC[C@H]3[C@@H]1CCC2=O` [ESTRONE SULFURIC ACID], the Vmax was 40 pmol/h. Same read-out and setting: the figure for `CC(C)Cc1ccc(C(C)C(=O)O)cc1` (stereo not drawn) [IBUPROFEN] is 0.28 pmol/h.
